Consider 18 molecules from patent publication US12492197B2, “3,5-disubstituted pyrazole compounds as kinase inhibitors and uses thereof” (IMPACT THERAPEUTICS (SHANGHAI), INC, priority 2019, dated 2025).

A value given as a limit tells only on which side of the number the result lay.

One test concerns the target T1, CHK1 kinase (Homo sapiens, UniProt O14757).
T1 construct: purchased Promega V1941
T1 sequence (O14757 1-476): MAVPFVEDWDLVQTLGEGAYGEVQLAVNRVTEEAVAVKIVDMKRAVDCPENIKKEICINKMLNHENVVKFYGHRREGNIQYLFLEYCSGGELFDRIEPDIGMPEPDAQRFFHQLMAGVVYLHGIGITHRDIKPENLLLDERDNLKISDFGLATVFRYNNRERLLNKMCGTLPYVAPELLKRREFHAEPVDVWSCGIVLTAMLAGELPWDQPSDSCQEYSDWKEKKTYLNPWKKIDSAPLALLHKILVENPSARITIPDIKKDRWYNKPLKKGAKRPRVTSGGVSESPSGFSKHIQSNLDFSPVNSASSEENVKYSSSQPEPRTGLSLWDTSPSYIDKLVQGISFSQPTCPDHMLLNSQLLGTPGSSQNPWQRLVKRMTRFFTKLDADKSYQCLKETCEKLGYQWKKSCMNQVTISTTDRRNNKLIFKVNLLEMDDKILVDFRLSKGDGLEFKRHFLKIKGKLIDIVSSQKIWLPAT
The test is described as follows: CHK1 kinase inhibition, ADP-Glo kinase assay. The settings on record: ATP 10 μM, CHK1 1 ng/well; for inhibition at 0.01 µM: compound concentration 10 nM, read-out: Inh % (inhibitory effect on CHK1 kinase activity); for IC50: read-out: IC50 (inhibitory effect on CHK1 kinase activity). It counts as biochemical. The procedure:
2 μL of kinase CHK1 (#V1941, Promega), 1 μL of compound diluted with buffer, and 2 μL of ATP substrate was successively added to a 384-well plate (final concentration of CHK1 was 1 ng/well, ATP was 10 μM). The positive control wells contained CHK1, ATP and DMSO whereas the negative control wells contained ATP, DMSO without enzyme. The mixtures were centrifuged at 1000 rpm for 1 minute and kept in darkness at room temperature for 1 hour to react. Then, 5 μL of ADP-Glo reagent was added to each well and incubated at room temperature for 40 minutes. At the end of incubation, 10 μL of kinase detection reagent was added to each well, and the relative chemiluminescence values (RLU) were measured on Varioskan® Flash (Thermo). The following calculation was performed: Inhibition rate %=(RLU of positive control−RLU of compound)/(RLU of positive control−RLU of negative control)×100. Data were analyzed using GraphPad Prism6.0 and fitted using the curve equation: Y=Bottom+(Top-Bottom)/(1+10^((Log IC50−X)*HillSlope)), and IC50 values were calculated.
On the technique in general: In ADP-Glo the light output rises with the ADP produced.

In test [1] the test system is human breast cancer cell HCC1806. The test is described as follows: Proliferation of HCC1806 cells, MTT assay. The class given is cell-based. The conditions noted are these: HCC1806, 72 h, 3 days treatment, read-out: IC50 (inhibition of proliferation of HCC1806). The method, then:
Newly revived HCC1806 cells (purchased from Guangzhou Genio) were cultured and passaged for at least three generations before use. Cells were used at 90% confluency for experiments. Cells were digested with trypsinase and centrifuged at 800 rpm for 5 minutes. The cell pellets were resuspended in fresh RPMI1640 medium and cells were counted. Cells were seeded on 96-well cell culture plates at 2000 cells/well and incubated overnight at 37° C., 5% CO2. The stock solutions of the test substances (including the test compounds and the reference compound) were serially diluted to 8 concentrations with DMSO at a ratio of 1:3. Five μL of each of the serially diluted solutions were added to 120 μL of medium (diluted by 25 times) and mixed by shaking. […] The cell culture plates were returned to incubator at 37° C., 5% CO2 for 3 days. At the end of treatment the cell viability was determined by MTT colorimetric assay. Cell culture medium in each well was replaced by 100 μL/well of serum-free fresh medium containing MTT (0.5 mg/mL), and the culture was continued for additional 4 hours.
(§1) Data was analyzed by GraphPad Prism 6.0. The inhibitory effects of compounds on cell proliferation were plotted based on cell viability vs. the logarithm of compound concentration. Cell viability %=(ODcompound−ODbackground)/(ODDMSO−ODbackground)×100.
A general note: Tetrazolium assays rely on reduction of a dye to a coloured formazan, in cell work by metabolically active cells.

Test [2] concerns human colon cancer cell LoVo. The test is described as follows: Proliferation of LoVo cells, MTT assay. The class given is cell-based. The settings on record: 96 h, 4 days treatment, read-out: IC50 (inhibition of proliferation of LoVo). The procedure: Newly revived LoVo cells (purchased from Shanghai Cell Institute) were cultured and passaged for at least three generations before use. Cells were used at 90% confluence for experiment. Cells were digested with trypsinase and centrifuged at 800 rpm for 5 minutes and the supernatant was discarded. The cell pellets were resuspended in fresh RPMI1640 medium and counted. Cells were seeded on 96-well cell culture plates at 5000 cells/well and incubated overnight at 37° C., 5% CO2. The stock solutions of the test substances (including the test compounds and the reference compound) were serially diluted to 8 concentrations with DMSO at a ratio of 1:3. 5 μL of each series diluted solutions was added to 120 μL of medium (diluted by 25 times) and mixed by shaking. […] The cell culture plates were returned to incubator at 37° C. and 5% CO2 for 4 days. At the end of treatment, the cell viability was determined by MTT colorimetric assay. Cell culture medium in each well was replaced by 100 μL/well of serum-free DMEM medium containing MTT (0.5 mg/mL), and the culture was continued for additional 4 hours. Medium was then discarded and 100 μL/well of DMSO was added.
as §1

For `COc1cc(C(F)(F)F)cc(OC[C@@H]2CNCCO2)c1-c1cc(Nc2cnc(C#N)cn2)n[nH]1` [Example 19, (S)-5-((5-(2-methoxy-6-(morpholin-2-ylmethoxy)-4-(trifluoromethyl)phenyl)-1H-pyrazol-3-yl)amino)pyrazine-2-carbonitrile], the inhibition at 0.01 µM on CHK1 kinase was 91%. The IC50 in test [1] was 31.4 nM; in test [2] it was 31.2 nM.

For the molecule `CCOc1cccc(OC[C@H]2CCCNC2)c1-c1cc(Nc2cnc(C#N)cn2)n[nH]1` [Example 35, (S)-5-((5-(2-ethoxy-6-(piperidin-3-ylmethoxy)phenyl)-1H-pyrazol-3-yl)amino)pyrazine-2-carbonitrile], the values for the IC50 (at CHK1 kinase; in test [1]; in test [2]) were 1.78 nM, 21.6 nM and 21.2 nM, respectively.

In the case of `N#Cc1cnc(Nc2cc(-c3c(Cl)cccc3OC[C@H]3CCCNC3)[nH]n2)cn1` [Example 47, (S)-5-((5-(2-chloro-6-(piperidin-3-ylmethoxy)phenyl)-1H-pyrazol-3-yl)amino)pyrazine-2-carbonitrile], the inhibition at 0.01 µM at CHK1 kinase stood at 40%. In addition, the IC50 in test [1] was determined as 381 nM; in test [2] it was 533 nM.

In the case of `COc1cc(F)cc(OC[C@H]2CCNC2)c1-c1cc(Nc2cnc(C#N)cn2)n[nH]1` [Example 39, (S)-5-((5-(4-fluoro-2-methoxy-6-(pyrrolidin-3-ylmethoxy)phenyl)-1H-pyrazol-3-yl)amino)pyrazine-2-carbonitrile], the IC50 at CHK1 kinase amounted to 0.2 nM; in test [1], 1 nM; in test [2], 1 nM.

Take `COc1c(F)ccc(OC[C@H]2CCCNC2)c1-c1cc(Nc2cnc(C#N)cn2)n[nH]1` [Example 37, (S)-5-((5-(3-fluoro-2-methoxy-6-(piperidin-3-ylmethoxy)phenyl)-1H-pyrazol-3-yl)amino)pyrazine-2-carbonitrile]: the figures for the IC50 (on CHK1 kinase; in test [1]; in test [2]) were 0.77 nM, 30.5 nM and 28.8 nM, respectively.

As for `COc1cccc(OCC2CNC2)c1-c1cc(Nc2cnc(C#N)cn2)n[nH]1` [Example 31, 5-((5-(2-(azetidin-3-ylmethoxy)-6-methoxyphenyl)-1H-pyrazol-3-yl)amino)pyrazine-2-carbonitrile], the IC50 on CHK1 kinase was 0.38 nM; in test [1], 6.4 nM; in test [2], 5.6 nM.

In the case of `COc1cccc(OC[C@H]2CCCCN2)c1-c1cc(Nc2cnc(C#N)cn2)n[nH]1` [Example 33, (R)-5-((5-(2-methoxy-6-(piperidin-2-ylmethoxy)phenyl)-1H-pyrazol-3-yl)amino)pyrazine-2-carbonitrile], at CHK1 kinase, the inhibition at 0.01 µM came to 97%. Also, the values for the IC50 in test [1] and in test [2] were 32.4 nM and 26 nM, respectively.

`N#Cc1cnc(Nc2cc(-c3c(F)cccc3OC[C@H]3CCNC3)[nH]n2)cn1` [Example 54, (S)-5-((5-(2-fluoro-6-(pyrrolidin-3-ylmethoxy)phenyl)-1H-pyrazol-3-yl)amino)pyrazine-2-carbonitrile]: the IC50 on CHK1 kinase turned out to be 0.86 nM; in test [1], 30.7 nM; in test [2], 16.2 nM.

As for `COc1cccc(OC[C@@H]2CNCCS2)c1-c1cc(Nc2cnc(C#N)cn2)n[nH]1` [Example 76-A, (S)-5-((5-(2-methoxy-6-(thiomorpholin-2-ylmethoxy)phenyl)-1H-pyrazol-3-yl)amino)pyrazine-2-carbonitrile], the IC50 at CHK1 kinase was 0.79 nM; in test [1], 1.4 nM; in test [2], 2.1 nM.

`COc1cc(Cl)cc(OC[C@H]2CCNC2)c1-c1cc(Nc2cnc(C#N)cn2)n[nH]1` [Example 68, (S)-5-((5-(4-chloro-2-methoxy-6-(pyrrolidin-3-ylmethoxy)phenyl)-1H-pyrazol-3-yl)amino)pyrazine-2-carbonitrile]: the results for the IC50 (at CHK1 kinase; in test [1]; in test [2]) were 0.44 nM, 2.8 nM and 2.3 nM, respectively.

Regarding `COc1cccc(OC[C@H]2CCCNC2)c1-c1cc(Nc2ccc(C#N)nn2)n[nH]1` [Example 25, (S)-6-((5-(2-methoxy-6-(piperidin-3-ylmethoxy)phenyl)-1H-pyrazol-3-yl)amino)pyridazine-3-carbonitrile], the inhibition at 0.01 µM on CHK1 kinase was found to be 91%. Further, the IC50 turned out to be 113 nM in test [1] and 104 nM in test [2].

`COc1cc(F)cc(OC[C@H]2CCCN2)c1-c1cc(Nc2cnc(C#N)cn2)n[nH]1` [Example 66, (R)-5-((5-(4-fluoro-2-methoxy-6-(pyrrolidin-2-ylmethoxy)phenyl)-1H-pyrazol-3-yl)amino)pyrazine-2-carbonitrile]: the IC50 at CHK1 kinase worked out at 1.22 nM; in test [1], 26.5 nM; in test [2] it was 14.3 nM.

For `Cc1cc(F)c(-c2cc(Nc3cnc(C#N)cn3)n[nH]2)c(OC[C@H]2CCNC2)c1` [Example 62, (S)-5-((5-(2-fluoro-4-methyl-6-(pyrrolidin-3-ylmethoxy)phenyl)-1H-pyrazol-3-yl)amino)pyrazine-2-carbonitrile], the IC50 on CHK1 kinase is 1.58 nM; in test [1] it was 21.6 nM; in test [2], 18 nM.

Regarding `COc1cc(C)cc(OC[C@@H]2CNCCO2)c1-c1cc(Nc2cnc(C#N)cn2)n[nH]1` [Example 44, (S)-5-((5-(2-methoxy-4-methyl-6-(morpholin-2-ylmethoxy)phenyl)-1H-pyrazol-3-yl)amino)pyrazine-2-carbonitrile], the IC50 on CHK1 kinase was 0.93 nM; in test [1], 13.3 nM; in test [2], 18 nM.

On to `COc1cccc(OC[C@@H]2CNCCO2)c1-c1cc(Nc2cnc(C)cn2)n[nH]1` [Example 6, (S)—N-(5-(2-methoxy-6-(morpholin-2-ylmethoxy)phenyl)-1H-pyrazol-3-yl)-5-methylpyrazin-2-amine], for which the inhibition at 0.01 µM at CHK1 kinase is 85%. Moreover, the figures for the IC50 in test [1] and in test [2] were 187 nM and 192 nM, respectively.

For the molecule `COc1cc(Br)cc(OC[C@H]2CCCNC2)c1-c1cc(Nc2cnc(C#N)cn2)n[nH]1` [Example 41, (S)-5-((5-(4-bromo-2-methoxy-6-(piperidin-3-ylmethoxy)phenyl)-1H-pyrazol-3-yl)amino)pyrazine-2-carbonitrile], the IC50 at CHK1 kinase stood at 0.85 nM; in test [1], 4.4 nM; in test [2], 5.1 nM.

Turning to `N#Cc1cnc(Nc2cc(-c3c(OC[C@@H]4CNCCO4)cccc3OC(F)(F)F)[nH]n2)cn1` [Example 20, (S)-5-((5-(2-(morpholin-2-ylmethoxy)-6-(trifluoromethoxy)phenyl)-1H-pyrazol-3-yl)amino)pyrazine-2-carbonitrile], the inhibition at 0.01 µM at CHK1 kinase was 31%. Also, the results for the IC50 in test [1] and in test [2] were 995 nM and greater than 1000 nM, respectively.

As for `COc1cccc(OC[C@H]2CCCN(C)C2)c1-c1cc(Nc2cnc(C#N)cn2)n[nH]1` [Example 32, (S)-5-((5-(2-methoxy-6-((1-methylpiperidin-3-yl)methoxy)phenyl)-1H-pyrazol-3-yl)amino)pyrazine-2-carbonitrile], the inhibition at 0.01 µM at CHK1 kinase came to 91%. Further, the IC50 in test [1] turned out to be 31.7 nM; in test [2] it was 25.6 nM.
